Measured values reported in patent US8450266B2 (Ipsen Pharma S.A.S., priority 2008, dated 2013).
Where a SMILES comes first, the peptide text is derived from it. [ ]: non-standard residue; d: D form. The star is where a group is joined. Ac6c = NC1(C(=O)O)CCCCC1; X1 = CCCN1C(=O)CC(*)C1=O

Assays:
[1] = Human plasma half-life assay (LC-MS); assay type: in vitro ADME; details: incubated at 37° C., read-out: Human Plasma T½ (converted)
Method: (§1) B. Human and Rat Plasma Half-Life Assay
(§2) 50 μl, was removed at various times, like at 0, 1, 2, 3, 4, 8, 24, 32, 48, 56, 72 hours, mixed with 5 μL formic acid and 150 μL acetonitrile in a microcentrifuge tube, vertexed, and centrifuged for 10 minutes at 10K rpm. The supernatant was transferred to an injection vial and analyzed by LC-MS. The LC-MS system consisted of an API4000 mass spectrometer with an ESI probe. Positive ion mode and full scan detection were used. HPLC separation was carried out on a Luna 3μ C8 (2), 2×30 mm column with a gradient from 90% A to 90% B in 10 minutes at a flow rate of 0.3 ml/min. Buffer A was 1% formic acid in water and buffer B was 1% formic acid acetonitrile.

[2] = Rat plasma half-life assay (LC-MS); assay type: in vitro ADME; details: incubated at 37° C., read-out: Rat Plasma T½ (converted)
Method: as §1, §2

SMILES: CC[C@H](C)[C@H](NC(=O)[C@H](CO)NC(=O)[C@H](Cc1ccc(O)cc1)NC(=O)[C@H](CC(=O)O)NC(=O)[C@H](CO)NC(=O)C1(NC(C)=O)CCCCC1)C(=O)N[C@@H](C)C(=O)N[C@@H](CCSC)C(=O)N[C@@H](CC(=O)O)C(=O)N[C@@H](CCCCN)C(=O)N[C@H](C(=O)N[C@@H](Cc1c[nH]cn1)C(=O)N[C@@H](CCC(N)=O)C(=O)N[C@@H](CCC(N)=O)C(=O)N[C@@H](CC(=O)O)C(=O)N[C@@H](Cc1ccccc1)C(=O)N[C@H](C(=O)N[C@@H](CC(N)=O)C(=O)N[C@@H](Cc1c[nH]c2ccccc12)C(=O)N[C@@H](CC(C)C)C(=O)N[C@@H](CC(C)C)C(=O)N[C@@H](C)C(=O)N[C@@H](CCC(N)=O)C(=O)N[C@@H](CCCCN)C(=O)NCC(=O)N[C@@H](CCCCN)C(=O)N[C@@H](CCCCN)C(=O)N[C@@H](CC(N)=O)C(=O)N[C@@H](CC(=O)O)C(=O)N[C@@H](Cc1c[nH]c2ccccc12)C(=O)N[C@@H](CCCCN)C(=O)N[C@@H](Cc1c[nH]cn1)C(=O)N[C@@H](CC(N)=O)C(=O)N[C@H](C(=O)N[C@H](C(=O)N[C@@H](CCC(N)=O)C(=O)O)[C@@H](C)O)[C@@H](C)CC)C(C)C)[C@@H](C)CC [Example 1, (Ac-A6c^7)hGIP(7-42)-OH]
- half-life at 0.1 mg/ml [1]: > 72 h
- half-life at 0.1 mg/ml [2]: 11 h

SMILES: CCCN1C(=O)CC(SC[C@H](NC(=O)[C@H](CC(N)=O)NC(=O)[C@H](Cc2c[nH]cn2)NC(=O)[C@H](CCCCN)NC(=O)[C@H](Cc2c[nH]c3ccccc23)NC(=O)[C@H](CC(=O)O)NC(=O)[C@H](CC(N)=O)NC(=O)[C@H](CCCCN)NC(=O)[C@H](CCCCN)NC(=O)CNC(=O)[C@H](CCCCN)NC(=O)[C@H](CCC(N)=O)NC(=O)[C@H](C)NC(=O)[C@H](CC(C)C)NC(=O)[C@H](CC(C)C)NC(=O)[C@H](Cc2c[nH]c3ccccc23)NC(=O)[C@H](CC(N)=O)NC(=O)[C@@H](NC(=O)[C@H](Cc2ccccc2)NC(=O)[C@H](CC(=O)O)NC(=O)[C@H](CCC(N)=O)NC(=O)[C@H](CCC(N)=O)NC(=O)[C@H](Cc2c[nH]cn2)NC(=O)[C@@H](NC(=O)[C@H](CCCCN)NC(=O)[C@H](CC(=O)O)NC(=O)[C@H](CCSC)NC(=O)[C@H](C)NC(=O)[C@@H](NC(=O)[C@H](CO)NC(=O)[C@H](Cc2ccc(O)cc2)NC(=O)[C@H](CC(=O)O)NC(=O)[C@H](CO)NC(=O)C2(NC(C)=O)CCCCC2)[C@@H](C)CC)[C@@H](C)CC)C(C)C)C(=O)N[C@H](C(=O)N[C@@H](CCC(N)=O)C(=O)O)[C@@H](C)O)C1=O (stereo partly drawn) [Example 2, [Ac-A6c^7, Cys(Psu)^40]hGIP(7-42)-OH] (Ac-[Ac6c]SDYSIAMDKIHQQDFVNWLLAQKGKKNDWKHNC(X1)TQ-OH)
- half-life at 0.1 mg/mL [1]: 13.7 h
- half-life at 0.1 mg/mL [2]: 7.2 h

SMILES: CCCN1C(=O)CC(SC[C@H](NC(=O)[C@H](Cc2c[nH]cn2)NC(=O)[C@H](CCCCN)NC(=O)[C@H](Cc2c[nH]c3ccccc23)NC(=O)[C@H](CC(=O)O)NC(=O)[C@H](CC(N)=O)NC(=O)[C@H](CCCCN)NC(=O)[C@H](CCCCN)NC(=O)CNC(=O)[C@H](CCCCN)NC(=O)[C@H](CCC(N)=O)NC(=O)[C@H](C)NC(=O)[C@H](CC(C)C)NC(=O)[C@H](CC(C)C)NC(=O)[C@H](Cc2c[nH]c3ccccc23)NC(=O)[C@H](CC(N)=O)NC(=O)[C@@H](NC(=O)[C@H](Cc2ccccc2)NC(=O)[C@H](CC(=O)O)NC(=O)[C@H](CCC(N)=O)NC(=O)[C@H](CCC(N)=O)NC(=O)[C@H](Cc2c[nH]cn2)NC(=O)[C@@H](NC(=O)[C@H](CCCCN)NC(=O)[C@H](CC(=O)O)NC(=O)[C@H](CCSC)NC(=O)[C@H](C)NC(=O)[C@@H](NC(=O)[C@H](CO)NC(=O)[C@H](Cc2ccc(O)cc2)NC(=O)[C@H](CC(=O)O)NC(=O)[C@H](CO)NC(=O)C2(NC(C)=O)CCCCC2)[C@@H](C)CC)[C@@H](C)CC)C(C)C)C(=O)N[C@H](C(=O)N[C@H](C(=O)N[C@@H](CCC(N)=O)C(=O)O)[C@@H](C)O)[C@@H](C)CC)C1=O (stereo partly drawn) [Example 3, [Ac-A6c^7, Cys(Psu)^39]hGIP(7-42)-OH] (Ac-[Ac6c]SDYSIAMDKIHQQDFVNWLLAQKGKKNDWKHC(X1)ITQ-OH)
- half-life at 0.1 mg/mL [1]: 16.4 h
- half-life at 0.1 mg/mL [2]: 5.6 h
